Laboratory results published in patent US6569846B1, “Palladium-substituted bacteriochlorophyll derivatives and use thereof” (Yeda Research and Development Co. Ltd., priority 1998, dated 2003).
Values joined by “and” are separate entries in the source; they are usually repeats but may differ in a detail not shown here. Equal values may be shown once.

What was measured:
[1] = test system: mouse leukemia L1210 cells; test: Sites of photodamage (fluorescent probes); type: cell-based
Description: (ii) In vitro phototoxicity. For studies on phototoxicity involving L1210 and RIF cells, light was provided by a 600 watt quartz-halogen source filtered with 10 cm of water and a 850 nm cut-off filter to remove IR. The bandwidth was further confined to 660±5 nm by an interference filter (Oriel). Cells in suspension (L1210) or adhering to 24 mm diameter cover slips were incubated in growth medium (with 20 mM HEPES pH 7 replacing NaHCO3 for added buffering capacity) for 15 min in the presence of specified levels of sensitizers. The cells were then washed free from the sensitizer, and transferred to fresh media. Irradiations were carried out at 10° C. For some studies, the cells were then labeled with fluorescent probes and sites of photodamage were assessed. In other studies, the cells were then incubated for 60 min at 37° C. in fresh medium to allow apoptosis to proceed. Viability studies were carried out using 96-well plates and a 72-hour MTT assay, in quadruplicate.

[2] = test system: HDL, LDL, Albumin fractions of human serum; test: Plasma lipoprotein binding (density-gradient centrifugation); type: in vitro ADME; conditions: 3 μM, 30 min at 37° C.
Description: (iv) Lipoprotein binding: Binding of Pd-BPheid to protein and lipoprotein compound of control human plasma was determined. Incubation of 250 μl plasma sample with 3 μM of the compound for 30 min at 37° C. Lipoprotein and protein components were then separated by density-gradient centrifugator. The gradients were fractionated, fractions diluted into 3 ml of 10 mM Triton X-100 detergent or of fluorescence at 750-800 nm determined upon excitation at 400 nm.

C3H/BA mammary carcinoma = test: In vivo PDT of BA mammary carcinoma; design: key to Summary (cures), symbol: −: no response
Description: Photodynamic therapy parameters: Mice with tumors measuring 5-7 mm in diameter were entered into PDT experiments. Three Pd-BPheid drug doses (1, 5 and 10 mg/kg) and two light doses (100 and 300 Joules/sq.cm) were evaluated. A formulation of Pd-BPheid dissolved in Cremophor was administered by i.v. tail injection. PDT light exposure was started either 15 minutes, 1 hour or 4 hours following injection. […] A titanium sapphire laser tuned to 757 nm was used as the light source for PDT. Laser generated light was coupled into quartz fibers for delivery of light to tumors. A light power density of 75 mW/sq.cm was used. Tumor size was measured 3 days per week following PDT treatments and the percentage of tumor cures (defined as no tumor recurrence for 40 days post treatment) was determined.
In vivo PDT Response: Tables 4 and 5 hereinafter provide summaries of the PDT treatment results for C3H mice transplanted with either the BA mammary carcinoma or the RIF-1 fibrosarcoma. Each table indicates the following parameters: 1) intravenous drug dose expressed in mg/kg; 2) laser treatment parameters, including the total light dose (J/cm^2), the wavelength (757 nm), the light dose rate (mW/cm^2), and the time interval ([…], 4) toxicity (four mice died shortly after treatment), 5) tumor regrowth (consisting of the number of days between PDT treatment and tumor recurrence) and 6) the number of mice (and percentage) with Pd-BPheid PDT induced tumor cures.

M2R mouse melanoma cells = test: Phototoxicity on M2R cells (Example 11, [3H]-thymidine incorporation); type: cell-based
Description: For phototoxicity analysis cells (1×10^4 cells/well) were cultured in 96-well plates for 24 hours to an approximate density of 2×10^4 cells/well. Pigments were dissolved directly in culture medium or in ethanol 95% and further diluted in culture medium to a final concentration of 1% ethanol. The diluted pigments were added and the cells were incubated in the dark for four hours at 37° C. Prior to illumination, the cells were washed once and replaced with fresh culture medium. The plates were then illuminated from the bottom for 10 minutes at room temperature and placed in the culture incubator at 37° C. in the dark. Cell survival was determined 24 hours later. The following control systems were used: Dark control—untreated cells kept in the dark; Light control—cells not treated with sensitizer that were illuminated; Dark toxicity—cells treated with pigment but kept in the dark. Cell survival was determined by [^3H]-thymidine incorporation as described earlier (WO 97/19081). […]
(iii) Phototoxicity study: Analysis was performed with the same protocol as described above (Example 10) with the following changes: Pd-BPheid was dissolved directly in medium containing 10% serum and then added to the cells. Survival of M2R cells was determined by [^3H]-thymidine incorporation and that of human HT29 cells with the MTT assay (Merlin J L et al., 1992 Eur. J. Cancer 28A: 1452-1458).

[3] = 1 mg/Kg i.v., 300 J/cm^2, 757 nm, 75 mW/cm^2, 15 min. interval
[4] = 5 mg/Kg i.v., 300 J/cm^2, 757 nm, 75 mW/cm^2, 1 HR interval
[5] = 5 mg/Kg i.v., 300 J/cm^2, 757 nm, 75 mW/cm^2, 15 min. interval
[6] = 10 mg/Kg i.v., 100 J/cm^2, 757 nm, 75 mW/cm^2, 1 HR interval
[7] = 10 mg/Kg i.v., 100 J/cm^2, 757 nm, 75 mW/cm^2, 15 min. interval
[8] = 10 mg/Kg i.v., 300 J/cm^2, 757 nm, 75 mW/cm^2, 1 HR interval
[9] = 10 mg/Kg i.v., 300 J/cm^2, 757 nm, 75 mW/cm^2, 4 HR interval

## CC[C@H]1C2=NC(=Cc3c(C(C)=O)c(C)c4[n]3[Pd][n]3c(c(C)c5c3=C(C3=NC(=C4)[C@@H](C)[C@@H]3CCC(=O)O)[C@@H](C(=O)OC)C5=O)=C2)[C@@H]1C [Pd-BPheid, Pd-bacteriopheophorbide a]
[1]
  photodamage to the plasma membrane or to lysosomes: no detectable photodamage
  site of photodamage: highly specific mitochondrial photosensitizers
[2]
  plasma lipoprotein binding, rank order of fractions: HDL>LDL>>>Albumin
C3H/BA mammary carcinoma; [3]
  Number of Animals with Primary Tumor Regrowth (Days to Recurrence): 1(1 day)
  Summary (cures), symbol: −
  Toxicity (Treatment associated death): 0
C3H/BA mammary carcinoma; [4]
  Number of Animals with Primary Tumor Regrowth (Days to Recurrence): 1(11 days)
  Summary (cures) %: 66.66%
  Summary (cures), number of animals (days): 2(41 days)
  Toxicity (Treatment associated death): 0
C3H/BA mammary carcinoma; [5]
  Summary (cures) %: 100%
  Summary (cures), number of animals (days): 2(40 days)
  Toxicity (Treatment associated death): 0
C3H/BA mammary carcinoma; [6]
  Number of Animals with Primary Tumor Regrowth (Days to Recurrence): 1(5 days)
  Summary (cures) %: 66.66%
  Summary (cures), number of animals (days): 2(40 days)
  Toxicity (Treatment associated death): 0
C3H/BA mammary carcinoma; [7]
  Summary (cures) %: 100%
  Summary (cures), number of animals (days): 2(42 days)
  Toxicity (Treatment associated death): 0
C3H/BA mammary carcinoma; [8]
  Summary (cures) %: 100%
  Summary (cures), number of animals (days): 2(41 days) and 1(41 days)
  Toxicity (Treatment associated death): 0
C3H/BA mammary carcinoma; [9]
  Number of Animals with Primary Tumor Regrowth (Days to Recurrence): 2(1 day)
  Summary (cures), symbol: −
  Toxicity (Treatment associated death): 0
C3H/BA mammary carcinoma; 4-hour interval between drug administration and light treatment
  effectiveness of PDT: not effective
C3H/BA mammary carcinoma; comparable PDT treatments
  responsiveness of BA mammary carcinoma compared with RIF-1 fibrosarcoma: more responsive
C3H/BA mammary carcinoma; light treatments initiated within 1 hour of drug administration
  effectiveness of PDT: effective
M2R mouse melanoma cells
  sensitivity of M2R cells relative to HT-29 cells: about 10 times
